For assay [1], the system named is RPMI-8226. Kind of assay: Antiproliferative activity against human RPMI-8226 cells assessed as cell growth inhibition at 10 uM by SRB assay relative to control. The class given is functional. (In SRB staining, fixed cells bind dye roughly in proportion to their protein.)
For assay [2], the system named is UACC-62. Kind of assay: Antiproliferative activity against human UACC-62 cells assessed as cell growth inhibition at 10 uM by SRB assay relative to control. The class given is functional.
In assay [3] the test system is HT-29. Kind of assay: Antiproliferative activity against human HT-29 cells assessed as cell growth inhibition at 10 uM by SRB assay. The class given is functional, cell-based.
Assay [4] relates to NCI-H23. Briefly: Antiproliferative activity against human NCI-H23 cells assessed as cell growth inhibition at 10 uM by SRB assay. The format is functional.
Assay [5] relates to DU-145. Briefly: Antiproliferative activity against human DU-145 cells assessed as inhibition of cell growth at 10 uM by SRB assay relative to control. The format is functional.
In assay [6] the test system is NCI-H460. Kind of assay: Antiproliferative activity against human NCI-H460 cells assessed as cell growth inhibition at 10 uM by SRB assay relative to control. The class given is functional.
Assay [7] concerns Lung cancer cell line. Kind of assay: Antiproliferative activity against human lung cancer cells assessed as cell growth inhibition at 10 uM by SRB assay relative to control. The format is functional.
Assay [8] has as its system HCT-15. Kind of assay: Antiproliferative activity against human HCT-15 cells assessed as cell growth inhibition at 10 uM by SRB assay. The class given is functional, cell-based.
The test system of assay [9] is A549. Briefly: Antiproliferative activity against human A549 cells assessed as cell growth inhibition at 10 uM by SRB assay. The class given is functional, cell-based.
In assay [10] the test system is KM12. Briefly: Antiproliferative activity against human KM12 cells assessed as cell growth inhibition at 10 uM by SRB assay. The format is functional, cell-based.
For assay [11], the system named is Ovarian cancer cell line. Kind of assay: Antiproliferative activity against human ovarian cancer cells assessed as cell growth inhibition at 10 uM by SRB assay relative to control. The class given is functional.
In assay [12] the test system is PC-3. Kind of assay: Antiproliferative activity against human PC-3 cells assessed as inhibition of cell growth at 10 uM by SRB assay relative to control. The class given is functional.
Assay [13] concerns HCC 2998. Kind of assay: Antiproliferative activity against human HCC 2998 cells assessed as cell growth inhibition at 10 uM by SRB assay. The format is functional, cell-based.
Assay [14] relates to SK-MEL-28. Briefly: Antiproliferative activity against human SK-MEL-28 cells assessed as cell growth inhibition at 10 uM by SRB assay relative to control. The class given is functional.
Assay [15] concerns HCT-116. Briefly: Antiproliferative activity against human HCT-116 cells assessed as cell growth inhibition at 10 uM by SRB assay. The class given is functional, cell-based.
The subject of assay [16] is HOP-62. Briefly: Antiproliferative activity against human HOP-62 cells assessed as cell growth inhibition at 10 uM by SRB assay relative to control. The format is functional.
Assay [17] has as its system OVCAR-8. Kind of assay: Antiproliferative activity against human OVCAR-8 cells assessed as cell growth inhibition at 10 uM by SRB assay relative to control. The class given is functional.
The subject of assay [18] is Malme-3M. Briefly: Antiproliferative activity against human Malme-3M cells assessed as cell growth inhibition at 10 uM by SRB assay relative to control. The format is functional.
The subject of assay [19] is SW-620. Kind of assay: Antiproliferative activity against human SW620 cells assessed as cell growth inhibition at 10 uM by SRB assay. The format is functional, cell-based.
Assay [20] concerns OVCAR-4. Briefly: Antiproliferative activity against human OVCAR-4 cells assessed as cell growth inhibition at 10 uM by SRB assay relative to control. The class given is functional.
Assay [21] has as its system NCI-H226. Kind of assay: Antiproliferative activity against human NCI-H226 cells assessed as cell growth inhibition at 10 uM by SRB assay. The format is functional.
The subject of assay [22] is COLO 205. Kind of assay: Antiproliferative activity against human COLO 205 cells assessed as cell growth inhibition at 10 uM by SRB assay. The format is functional, cell-based.
In assay [23] the test system is Prostatic carcinoma cell. Briefly: Antiproliferative activity against human prostatic carcinoma cells assessed as cell growth inhibition at 10 uM by SRB assay relative to control. The format is functional.

Results on one compound are retold here after ChEMBL document CHEMBL5260845, “Flavone-based arylamides as potential anticancers: Design, synthesis and in vitro cell-based/cell-free evaluations” (2020).

Usually inhibition stands for the drop in the measured response relative to a control, in per cent.

Calls of active or inactive are those of the source. The rule behind the calls is not given here.

In the case of `COc1cc2oc(-c3cccc(C(=O)Nc4ccc(C#N)cc4)c3)cc(=O)c2c(O)c1OC`, the inhibition at 10 µM in assay [1] is 82.6%; in [2], 50.5%; in assay [5], 65.8%; in assay [6], 81.1%; in [7], over 50%; in [11], over 50%. In addition, the inhibition at 10 µM in assay [12] was 92.1%; in assay [14], 67.2%; in assay [16], 31.8%; in [17], 70.9%; in assay [18] it was 52.3%; in assay [20], 88.3%. The inhibition at 10 µM in assay [23] was over 50%. The inhibition entry in assay [3], in assay [4], in [8], in assay [9], in assay [10] and in assay [13] was “Active” each time. Besides, the inhibition entry in assay [15], in assay [19], in assay [21] and in [22] was “Active” throughout.
